Article PMC3265452 (PLoS Neglected Tropical Diseases, 2012)
Counter-ions that a name gives are not always drawn.

The compounds below were run against AaDOP2 (Aedes aegypti, UniProt H6D5H2) (assay: AaDOP2 antagonist screen of the LOPAC1280 library (HEK-CRELuc-Aadop2 cells, luminescence)). Conditions: not given.
Format: cell-based

Sequence of AaDOP2 (H6D5H2 1-476): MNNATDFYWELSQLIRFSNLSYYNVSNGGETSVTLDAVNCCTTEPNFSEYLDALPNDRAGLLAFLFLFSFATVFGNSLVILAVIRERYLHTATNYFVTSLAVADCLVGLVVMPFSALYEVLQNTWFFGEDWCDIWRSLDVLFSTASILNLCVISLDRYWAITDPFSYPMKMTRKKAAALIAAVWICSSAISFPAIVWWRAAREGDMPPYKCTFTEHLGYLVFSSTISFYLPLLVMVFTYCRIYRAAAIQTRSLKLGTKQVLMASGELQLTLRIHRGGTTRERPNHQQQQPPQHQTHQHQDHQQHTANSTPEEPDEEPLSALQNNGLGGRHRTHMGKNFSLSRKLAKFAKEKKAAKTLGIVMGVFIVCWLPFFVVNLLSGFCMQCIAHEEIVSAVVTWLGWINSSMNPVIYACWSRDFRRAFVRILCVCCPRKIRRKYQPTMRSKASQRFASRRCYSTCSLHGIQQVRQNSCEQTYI

Structure (SMILES)	Compound effect (percent receptor signaling in presence of test compound, relative lux units relative to the SCH23390 control)
CC(C)(C)c1ccc(C(O)CCCN2CCC(C(O)(c3ccccc3)c3ccccc3)CC2)cc1 (stereo not shown) [Compound 1218, Terfenadine]	41
Cl.O=c1[nH]oc2c1CCNC2 [Compound 1220, THIP hydrochloride]	95
O=C(CCCN1CCC(O)(c2cccc(C(F)(F)F)c2)CC1)c1ccc(F)cc1 [Compound 1221, Trifluperidol hydrochloride]	68
CN1[C@@H]2CC[C@H]1CC(OC(=O)c1c[nH]c3ccccc13)C2.Cl (stereo partly shown) [Compound 1222, 3-Tropanyl-indole-3-carboxylate hydrochloride]	89
CCCCNc1c(C(=O)OCC)c(C)nc2c1cnn2CC [Compound 1223, Tracazolate]	113
C[N+]1(C)C2CCC1CC(OC(=O)c1c[nH]c3ccccc13)C2.[I-] (stereo not shown) [Compound 1224, 3-Tropanylindole-3-carboxylate methiodide]	91
Cc1scc2c1N(C(=O)CN1CCN(C)CC1)c1ccccc1NC2=O [Compound 1225, Telenzepine dihydrochloride]	77
S=C(NC1CCCCC1)N1CCC(c2cnc[nH]2)CC1 [Compound 1226, Thioperamide maleate]	90
CC(C)(C)c1cc(C=C(C#N)C#N)cc(C(C)(C)C)c1O [Compound 1230, Tyrphostin A9]	25
CP(=O)(O)C1=CCNCC1 [Compound 1231, TPMPA]	112
CCCCC/C=C\C[C@@H](O)/C=C/c1cccc(C[C@@H](O)CCCCO)n1 [Compound 1232, U-75302]	107
O=c1ccn([C@@H]2O[C@H](COP(=O)([O-])OP(=O)([O-])[O-])[C@@H](O)[C@H]2O)c(=O)[nH]1.[Na+].[Na+].[Na+] [Compound 1233, Uridine 5'-diphosphate sodium]	78
C[C@]12C=CC(=O)C=C1CC[C@@H]1C2=CC[C@]2(C)[C@@H](C(=O)CN3CCN(c4cc(N5CCCC5)nc(N5CCCC5)n4)CC3)CC[C@@H]12.O=C(O)/C=C\C(=O)O [Compound 1234, U-74389G maleate]	88
Cc1c(C)c2c(c(C)c1O)CCC(C)(CN1CCN(c3cc(N4CCCC4)nc(N4CCCC4)n3)CC1)O2.Cl.Cl (stereo not shown) [Compound 1235, U-83836 dihydrochloride]	103
COc1ccc2c(c1)CC[C@@H]1[C@@H]2CC[C@]2(C)[C@@H](NCCCCCCN3C(=O)C=CC3=O)CC[C@@H]12 [Compound 1236, U-73122]	80
O=C(O)C=Cc1c[nH]cn1 [Compound 1238, 4-Imidazoleacrylic acid]	74
COc1ccccc1N1CCN(CCCNc2cc(=O)n(C)c(=O)n2C)CC1 [Compound 1239, Urapidil hydrochloride]	94
COc1ccccc1N1CCN(CCCNc2c(C)c(=O)n(C)c(=O)n2C)CC1 [Compound 1240, Urapidil, 5-Methyl-]	91
Brc1c(NC2=NCCN2)ccc2nccnc12 [Compound 1242, UK 14,304]	87
CCCN(CCC)[C@H]1CCc2c(F)ccc(O)c2C1.Cl [Compound 1244, S(-)-UH-301 hydrochloride]	90
CCCN(CCC)[C@@H]1CCc2c(F)ccc(O)c2C1.Cl [Compound 1245, R(+)-UH-301 hydrochloride]	97

Structure (SMILES)	Compound effect (percent receptor signaling in presence of test compound, relative lux units relative to the SCH23390 control)
CCCN(CCC)C1Cc2cc(OC)c(OC)cc2C1.O=C(O)/C=C\C(=O)O [Compound 1249, U-99194A maleate]	97
N#CC(=C(/N)Sc1ccccc1N)/C(C#N)=C(/N)Sc1ccccc1N [Compound 1250, U0126]	108
CC[C@]1(O)C[C@@H]2CN(CCc3c([nH]c4ccccc34)[C@@](C(=O)OC)(c3cc4c(cc3OC)N(C)[C@H]3[C@@](O)(C(=O)OC)[C@H](OC(C)=O)[C@]5(CC)C=CCN6CC[C@]43[C@@H]65)C2)C1.O=S(=O)(O)O [Compound 1251, Vinblastine sulfate salt]	118
COc1ccccc1NC(=O)Nc1nc(-c2cccnc2)nc2ccccc12 [Compound 1253, VUF 5574]	111
CCOC(=O)C1=C[C@]2(CC)CCCN3CCc4c(n1c1ccccc41)[C@@H]32 [Compound 1254, Vinpocetine]	148
CC[C@]1(O)C[C@H]2CN(CCc3c([nH]c4ccccc34)[C@@](C(=O)OC)(c3cc4c(cc3OC)N(C=O)[C@H]3[C@@](O)(C(=O)OC)[C@H](OC(C)=O)[C@]5(CC)C=CCN6CC[C@]43[C@@H]65)C2)C1 [Compound 1257, Vincristine sulfate]	98
COc1cc2ncnc(Nc3ccc(O)cc3)c2cc1OC [Compound 1260, WHI-P131]	90
COC[C@H]1OC(=O)c2coc3c2[C@@]1(C)C1=C(C3=O)[C@@H]2CCC(=O)[C@@]2(C)C[C@H]1OC(C)=O [Compound 1261, Wortmannin from Penicillium funiculosum]	42
CC(N)=NCc1cccc(CN)c1.Cl.Cl [Compound 1262, 1400W dihydrochloride]	96
CS(=O)(=O)O.Cc1c(C(=O)c2cccc3ccccc23)c2cccc3c2n1[C@H](CN1CCOCC1)CO3 [Compound 1264, (R)-(+)-WIN 55,212-2 mesylate]	58
C#C[C@]1(O)CC[C@H]2[C@@H]3CCC4=Cc5nc6nc7ccccc7n6cc5C[C@]4(C)[C@H]3CC[C@@]21C [Compound 1265, WIN 62,577]	59
Cc1cccc(C)c1N=C1NCCCS1 [Compound 1269, Xylazine hydrochloride]	134
O=C(NCCNCC(O)COc1ccc(O)cc1)N1CCOCC1 (stereo not shown) [Compound 1270, Xamoterol hemifumarate]	112
Cc1cc(C(C)(C)C)cc(C)c1CC1=NCCN1 [Compound 1271, Xylometazoline hydrochloride]	85
CCCn1c(=O)c2[nH]c(-c3ccc(OCC(=O)NCCN)cc3)nc2n(CCC)c1=O [Compound 1272, Xanthine amine congener]	90
COC(=O)[C@@H]1[C@H]2C[C@H]3c4[nH]c5ccccc5c4CCN3C[C@@H]2CC[C@@H]1O [Compound 1273, Yohimbine hydrochloride]	85
OCc1ccc(-c2nn(Cc3ccccc3)c3ccccc23)o1 [Compound 1275, YC-1]	136
CCCOc1ccccc1-c1nc2nn[nH]c2c(=O)[nH]1 [Compound 1276, Zaprinast]	115
NS(=O)(=O)Cc1noc2ccccc12 [Compound 1277, Zonisamide sodium]	130
COc1cc(-c2ccc(=O)[nH]n2)ccc1OC(F)F [Compound 1278, Zardaverine]	125

Same assay, conditions: 10 µM compound, 300 nM dopamine, 2 hr; hit = compound effect <20

Structure (SMILES)	Compound effect (percent receptor signaling in presence of test compound, relative lux units relative to the SCH23390 control) [%]
CCN(CC)C(=O)N[C@H]1C[C@@H]2c3cccc4[nH]cc(c34)C[C@H]2N(C)C1 [Compound 1228, R(+)-Terguride]	73
N[C@@H](Cn1ccc(=O)[nH]c1=O)C(=O)O [Compound 1266, S(-)-Willardiine]	99
COc1ccccc1N1CCN(CCN(C(=O)C2CCCCC2)c2ccccn2)CC1.O=C(O)/C=C\C(=O)O [Compound 1267, WAY-100635 maleate]	101
N[C@@H](Cn1cc(I)c(=O)[nH]c1=O)C(=O)O [Compound 1268, S-5-Iodowillardiine]	130
COc1ccc(CCN(C)CCc2ccc(OC)c(OC)c2)cc1OC.Cl [Compound 1274, YS-035 hydrochloride]	93
